Source: patent US12559474B2, “Triazine derivatives having virus replication inhibitory activity and pharmaceutical composition comprising the same” (priority 2021, dated 2026)
Read-outs that look alike come from different tables or passages of the source.

Experiments:
SARS-CoV-2 = test: microbe, parasite or virus in culture; type: cell-based; conditions: Severe acute respiratory syndrome coronavirus 2, VeroE6/TMPRSS2, 72 h, 50% SARS-CoV-2 infected cell death inhibitory concentration, VeroE6/TMPRSS2 cells, 3 days culture
SARS-CoV-2 3CL protease = SARS-CoV-2 3CL protease (Severe acute respiratory syndrome coronavirus 2, UniProt P0DTD1); test: biochemical; conditions: 50% SARS-CoV-2 3CL protease inhibitory concentration, read-out: IC50

| SMILES | EC50 (SARS-CoV-2; class symbols) [nM] | IC50 (SARS-CoV-2 3CL protease; given as class symbols) [nM] | EC50 (SARS-CoV-2; CellTiter-Glo 2.0) [nM] | IC50 (SARS-CoV-2 3CL protease; RapidFire MS) [nM] |
| --- | --- | --- | --- | --- |
| Cc1cncc(-n2c(=O)nc(Nc3cc4cn(C)nc4cc3Cl)n(Cc3ccc(F)c(Br)c3)c2=O)c1 [II-0597] | < 1000 | < 100 |  |  |
| CNc1cncc(-n2c(=O)nc(Nc3cc4cn(C)nc4cc3Cl)n(Cc3cc(C#N)c(F)cc3Cl)c2=O)c1 [II-0598] | < 1000 | < 100 |  |  |
| CNc1cncc(-n2c(=O)nc(Nc3cc4cn(C)nc4cc3Cl)n(Cc3cc(Cl)c(F)cc3F)c2=O)c1 [II-0599] | < 1000 | < 100 |  |  |
| CNc1cncc(-n2c(=O)nc(Nc3cc4cn(C)nc4cc3Cl)n(Cc3cc(F)c(F)cc3F)c2=O)c1 [II-0600] | < 1000 | < 100 |  |  |
| CNc1cncc(-n2c(=O)nc(Nc3cc4cn(C)nc4cc3Cl)n(Cc3cc(F)c(F)c(Cl)c3)c2=O)c1 [II-0601] | < 1000 | < 100 |  |  |
| CNc1cncc(-n2c(=O)nc(Nc3cc4cn(C)nc4cc3Cl)n(Cc3cc(F)c(F)c(F)c3)c2=O)c1 [II-0602] | < 1000 | < 100 |  |  |
| C#Cc1cncc(-n2c(=O)nc(Nc3ccc(OC)cc3)n(Cc3cc(F)c(F)c(F)c3)c2=O)c1 [II-0604] |  |  | 9760 | 470 |
| Cn1cc2cc(Nc3nc(=O)n(-c4cncc(Cl)c4)c(=O)n3Cc3ccc(F)c(C#N)c3)ccc2n1 [II-0608] |  |  | 487 | 19 |
| Cn1cc2cc(Nc3nc(=O)n(-c4cncc(Cl)c4)c(=O)n3Cc3cc(F)c(F)c(F)c3)ccc2n1 [II-0609] |  |  | 2040 | 120 |
